Converted amounts (≈) assume the structure as drawn.
Columns and labels:
Enterobacter cloacae 963 = assay: MIC, twofold agar dilution method (standard laboratory strain); assay type: cell-based; details: Enterobacter cloacae 963, Gram -; 10^6 cfu/ml; 18 hrs at 37 °C
Description: (§1) Overnight cultures in Mueller-Hinton broth were suspended by buffered saline gelatin. One loopful of the bacterial suspension (10⁶ or 10⁸ colony-forming units/ml) was incubated onto the plates containing test compounds. The plates were incubated for 18 hrs at 37 °C. The MIC was defined by the lowest concentration of the drug that inhibited visible growth of bacteria.

[1] = system: Escherichia coli NIHJ JC-2; assay: as above; assay type: cell-based; details: NIHJJC2; Escherichia coli NIHJ JC-2, Gram -; 10^6 cfu/ml; 18 hrs at 37 °C
Description: as §1

[2] = system: Pseudomonas aeruginosa IFO 3445; assay: as above; assay type: cell-based; details: IFO3445; Pseudomonas aeruginosa IFO 3445, Gram -; 10^6 cfu/ml; 18 hrs at 37 °C
Description: as §1

[3] = system: Serratia marcescens IAM 1184; assay: as above; assay type: cell-based; details: IAM1184; Serratia marcescens IAM 1184, Gram -; 10^6 cfu/ml; 18 hrs at 37 °C
Description: as §1

[4] = system: Staphylococuss aureus FDA 209PJC-1; assay: as above; assay type: cell-based; details: Staphylococuss aureus FDA 209PJC-1, Gram +; 10^6 cfu/ml; 18 hrs at 37 °C
Description: as §1

[5] = system: Klebsiella pneumoniae PCI-602; assay: as above; assay type: cell-based; details: PCI602; Klebsiella pneumoniae PCI-602, Gram -; 10^6 cfu/ml; 18 hrs at 37 °C; read-out: MIC
Description: Minimum inhibitory concentrations (MIC) of test compounds were determined by the twofold agar dilution method (Chemotherapy, 29(1), 76(1981)). Overnight cultures in Mueller-Hinton broth were suspended by buffered saline gelatin. One loopful of the bacterial suspension (10⁶ or 10⁸ colony-forming units/ml) was incubated onto the plates containing test compounds. The plates were incubated for 18 hrs at 37 °C. The MIC was defined by the lowest concentration of the drug that inhibited visible growth of bacteria.

[6] = system: Acinetobacter calcoaceticus HNR 904; assay: MIC, twofold agar dilution method (clinically isolated strain); assay type: cell-based; details: HNR904; Acinetobacter calcoaceticus HNR 904, Gram -; 10^6 cfu/ml; 18 hrs at 37 °C
Description: as §1

[7] = system: Acinetobacter calcoaceticus HNR 916; assay: as above; assay type: cell-based; details: HNR916; Acinetobacter calcoaceticus HNR 916, Gram -; 10^6 cfu/ml; 18 hrs at 37 °C
Description: as §1

[8] = system: Acinetobacter calcoaceticus HNR 939; assay: as above; assay type: cell-based; details: HNR939; Acinetobacter calcoaceticus HNR 939, Gram -; 10^6 cfu/ml; 18 hrs at 37 °C
Description: as §1

[9] = system: Enterobacter cloacae HNR 1939; assay: as above; assay type: cell-based; details: HNR1939; Enterobacter cloacae HNR 1939, Gram -; 10^6 cfu/ml; 18 hrs at 37 °C
Description: as §1

[10] = system: Enterobacter cloacae HNR 1941; assay: as above; assay type: cell-based; details: HNR1941; Enterobacter cloacae HNR 1941, Gram -; 10^6 cfu/ml; 18 hrs at 37 °C
Description: as §1

[11] = system: Enterobacter cloacae HNR 1946; assay: as above; assay type: cell-based; details: HNR1946; Enterobacter cloacae HNR 1946, Gram -; 10^6 cfu/ml; 18 hrs at 37 °C
Description: as §1

[12] = system: Enterococcus faecalis HPC 948; assay: as above; assay type: cell-based; details: HPC948; Enterococcus faecalis HPC 948, Gram +; 10^6 cfu/ml; 18 hrs at 37 °C
Description: as §1

[13] = system: Enterococcus faecalis HPC 975; assay: as above; assay type: cell-based; details: HPC975; Enterococcus faecalis HPC 975, Gram +; 10^6 cfu/ml; 18 hrs at 37 °C
Description: as §1

[14] = system: Enterococcus faecalis HPC 984; assay: as above; assay type: cell-based; details: HPC984; Enterococcus faecalis HPC 984, Gram +; 10^6 cfu/ml; 18 hrs at 37 °C
Description: as §1

[15] = system: Klebsiella pneumoniae HNR 828; assay: as above; assay type: cell-based; details: HNR828; Klebsiella pneumoniae HNR 828, Gram -; 10^6 cfu/ml; 18 hrs at 37 °C
Description: as §1

[16] = system: Klebsiella pneumoniae HNR 858; assay: as above; assay type: cell-based; details: HNR858; Klebsiella pneumoniae HNR 858, Gram -; 10^6 cfu/ml; 18 hrs at 37 °C
Description: as §1

[17] = system: Klebsiella pneumoniae HNR 869; assay: as above; assay type: cell-based; details: HNR869; Klebsiella pneumoniae HNR 869, Gram -; 10^6 cfu/ml; 18 hrs at 37 °C
Description: as §1

[18] = system: Pseudomonas aeruginosa HNR 1472; assay: as above; assay type: cell-based; details: HNR1472; Pseudomonas aeruginosa HNR 1472, Gram -; 10^6 cfu/ml; 18 hrs at 37 °C
Description: as §1

[19] = system: Pseudomonas aeruginosa HNR 1489; assay: as above; assay type: cell-based; details: HNR1489; Pseudomonas aeruginosa HNR 1489, Gram -; 10^6 cfu/ml; 18 hrs at 37 °C
Description: as §1

[20] = system: Pseudomonas aeruginosa HNR 1537; assay: as above; assay type: cell-based; details: HNR1537; Pseudomonas aeruginosa HNR 1537, Gram -; 10^6 cfu/ml; 18 hrs at 37 °C
Description: as §1

[21] = system: Serratia marcescens HNR 1544; assay: as above; assay type: cell-based; details: HNR1544; Serratia marcescens HNR 1544, Gram -; 10^6 cfu/ml; 18 hrs at 37 °C
Description: as §1

[22] = system: Serratia marcescens HNR 1767; assay: as above; assay type: cell-based; details: HNR1767; Serratia marcescens HNR 1767, Gram -; 10^6 cfu/ml; 18 hrs at 37 °C
Description: as §1

[23] = system: Serratia marcescens HNR 1792; assay: as above; assay type: cell-based; details: HNR1792; Serratia marcescens HNR 1792, Gram -; 10^6 cfu/ml; 18 hrs at 37 °C
Description: as §1

[24] = system: Staphylococcuss aureus HPC 292; assay: as above; assay type: cell-based; details: Staphylococcuss aureus HPC 292, Gram +; 10^6 cfu/ml; 18 hrs at 37 °C
Description: as §1

[25] = system: Staphylococcuss aureus HPC 308; assay: as above; assay type: cell-based; details: Staphylococcuss aureus HPC 308, Gram +; 10^6 cfu/ml; 18 hrs at 37 °C
Description: as §1

[26] = system: Staphylococcuss aureus HPC 527; assay: as above; assay type: cell-based; details: Staphylococcuss aureus HPC 527, Gram +; 10^6 cfu/ml; 18 hrs at 37 °C
Description: as §1

Male mice of ddY strain = assay: Convulsion inducing activity in combination with fenbufen; details: thirty minutes after fenbufen 100 mg/kg orally
Description: Male mice of ddY strain, 5 weeks old, were used. Fenbufen suspended in 0.5 % carboxymethylcellulose was administered orally at a dose of 100 mg/kg. After thirty minutes, test compounds suspended in 0.5 % carboxymethylcellulose were injected intraperitoneally (i.p.) at a dose of 100 mg/kg or 300 mg/kg.

Structure (SMILES) | MIC (Enterobacter cloacae 963) [µg/mL] | MIC [1] [µg/mL] | MIC [2] [µg/mL] | MIC [3] [µg/mL] | MIC [4] [µg/mL] | MIC [5] [µg/mL] | MIC [6] [µg/mL] | MIC [7] [µg/mL] | MIC [8] [µg/mL] | MIC [9] [µg/mL] | MIC [10] [µg/mL] | MIC [11] [µg/mL] | MIC [12] [µg/mL] | MIC [13] [µg/mL] | MIC [14] [µg/mL] | MIC [15] [µg/mL] | MIC [16] [µg/mL] | MIC [17] [µg/mL] | MIC [18] [µg/mL] | MIC [19] [µg/mL] | also measured
CC1Sc2c(C(=O)O)c(=O)c3cc(F)c(N4CCNCC4)c(F)c3n21 (stereo not shown) [Ref. Drug C, 6,8-difluoro-1-methyl-4-oxo-7-(1-piperazinyl)-1H,4H-[1,3]thiazeto[3,2-a]quinoline-3-carboxylic acid] | 0.05 (≈ 0.136 µM) | 0.05 (≈ 0.136 µM) | 0.2 (≈ 0.544 µM) | 0.1 (≈ 0.272 µM) | 0.1 (≈ 0.272 µM) | 0.025 (≈ 0.068 µM) | 25 (≈ 68 µM) | 0.2 (≈ 0.544 µM) | 3.13 (≈ 8.52 µM) | 0.39 (≈ 1.06 µM) | 6.25 (≈ 17 µM) | 0.39 (≈ 1.06 µM) | 3.13 (≈ 8.52 µM) | 50 (≈ 136 µM) | 0.39 (≈ 1.06 µM) | 3.13 (≈ 8.52 µM) | 0.39 (≈ 1.06 µM) | 0.78 (≈ 2.12 µM) | 6.25 (≈ 17 µM) | 0.2 (≈ 0.544 µM) | MIC [20]: 12.5 µg/mL (≈ 34 µM); MIC [21]: 0.1 µg/mL (≈ 0.272 µM); MIC [22]: 12.5 µg/mL (≈ 34 µM); MIC [23]: 3.13 µg/mL (≈ 8.52 µM); MIC [24]: 25 µg/mL (≈ 68 µM); MIC [25]: 6.25 µg/mL (≈ 17 µM); MIC [26]: 0.2 µg/mL (≈ 0.544 µM); Number of convulsion induced / Number of animals (Male mice of ddY strain; 100 mg/kg (i.p.)): 6 / 6
CC1Sc2c(C(=O)O)c(=O)c3cc(F)c(N4CC[C@H](N)C4)c(F)c3n21 (single isomer, unassigned) [Example 18] | 0.006 (≈ 0.0163 µM) | 0.006 (≈ 0.0163 µM) | 0.025 (≈ 0.068 µM) | 0.012 (≈ 0.0327 µM) | 0.006 (≈ 0.0163 µM) | ≤ 0.0015 | 3.13 (≈ 8.52 µM) | 0.025 (≈ 0.068 µM) | 0.78 (≈ 2.12 µM) | 0.05 (≈ 0.136 µM) | 1.56 (≈ 4.25 µM) | 0.1 (≈ 0.272 µM) | 0.39 (≈ 1.06 µM) | 1.56 (≈ 4.25 µM) | 0.05 (≈ 0.136 µM) | 0.78 (≈ 2.12 µM) | 0.05 (≈ 0.136 µM) | 0.39 (≈ 1.06 µM) | 1.56 (≈ 4.25 µM) | 0.05 (≈ 0.136 µM) | MIC [20]: 3.13 µg/mL (≈ 8.52 µM); MIC [21]: 0.012 µg/mL (≈ 0.0327 µM); MIC [22]: 3.13 µg/mL (≈ 8.52 µM); MIC [23]: 0.78 µg/mL (≈ 2.12 µM); MIC [24]: 0.78 µg/mL (≈ 2.12 µM); MIC [25]: 0.39 µg/mL (≈ 1.06 µM); MIC [26]: 0.012 µg/mL (≈ 0.0327 µM); Number of convulsion induced / Number of animals (Male mice of ddY strain; 100 mg/kg (i.p.)): 0 / 6; Number of convulsion induced / Number of animals (Male mice of ddY strain; 300 mg/kg (i.p.)): 0 / 6
CC1Sc2c(C(=O)O)c(=O)c3cc(F)c(N4CCC(N)C4)cc3n21 (stereo not shown) [Ref. Drug D, 7-(3-amino-1-pyrrolidinyl)-6-fluoro-1-methyl-4-oxo-1H,4H-[1,3]thiazeto[3,2-a]quinoline-3-carboxylic acid] | 0.05 (≈ 0.143 µM) | 0.05 (≈ 0.143 µM) | 0.1 (≈ 0.286 µM) | 0.1 (≈ 0.286 µM) | 0.05 (≈ 0.143 µM) | 0.012 (≈ 0.0343 µM) | > 100 | 0.39 (≈ 1.12 µM) | 6.25 (≈ 17.9 µM) | 0.39 (≈ 1.12 µM) | > 100 | 0.78 (≈ 2.23 µM) | 3.13 (≈ 8.96 µM) | > 100 | 0.39 (≈ 1.12 µM) | 50 (≈ 143 µM) | 0.39 (≈ 1.12 µM) | 3.13 (≈ 8.96 µM) | 50 (≈ 143 µM) | 0.1 (≈ 0.286 µM) | MIC [20]: 1.56 µg/mL (≈ 4.46 µM); MIC [21]: 0.1 µg/mL (≈ 0.286 µM); MIC [22]: > 100 µg/mL; MIC [23]: 50 µg/mL (≈ 143 µM); MIC [24]: > 100 µg/mL; MIC [25]: 25 µg/mL (≈ 71.6 µM); MIC [26]: 0.1 µg/mL (≈ 0.286 µM); Number of convulsion induced / Number of animals (Male mice of ddY strain; 100 mg/kg (i.p.)): 0 / 6; Number of convulsion induced / Number of animals (Male mice of ddY strain; 300 mg/kg (i.p.)): 0 / 6
CC1Sc2c(C(=O)O)c(=O)c3cc(F)c(N4CC[C@H](N)C4)c(Cl)c3n21 (single isomer, unassigned) [Example 15] | 0.012 (≈ 0.0313 µM) | 0.012 (≈ 0.0313 µM) | 0.05 (≈ 0.13 µM) | 0.025 (≈ 0.0651 µM) | 0.025 (≈ 0.0651 µM) | 0.006 (≈ 0.0156 µM) | 6.25 (≈ 16.3 µM) | 0.05 (≈ 0.13 µM) | 0.78 (≈ 2.03 µM) | 0.1 (≈ 0.261 µM) | 0.78 (≈ 2.03 µM) | 0.1 (≈ 0.261 µM) | 0.39 (≈ 1.02 µM) | 1.56 (≈ 4.06 µM) | 0.1 (≈ 0.261 µM) | 0.78 (≈ 2.03 µM) | 0.1 (≈ 0.261 µM) | 0.2 (≈ 0.521 µM) | 1.56 (≈ 4.06 µM) | 0.1 (≈ 0.261 µM) | MIC [20]: 1.56 µg/mL (≈ 4.06 µM); MIC [21]: 0.025 µg/mL (≈ 0.0651 µM); MIC [22]: 1.56 µg/mL (≈ 4.06 µM); MIC [23]: 0.39 µg/mL (≈ 1.02 µM); MIC [24]: 1.56 µg/mL (≈ 4.06 µM); MIC [25]: 0.39 µg/mL (≈ 1.02 µM); MIC [26]: 0.025 µg/mL (≈ 0.0651 µM); Number of convulsion induced / Number of animals (Male mice of ddY strain; 100 mg/kg (i.p.)): 0 / 6; Number of convulsion induced / Number of animals (Male mice of ddY strain; 300 mg/kg (i.p.)): 0 / 6

Source: patent EP0465716A1, “Optically active thiazetoquino-line-3-carboxylic acid compound, method for preparation thereof, and a pharmaceutical composition comprising the same” (priority 1990, dated 1992)
